The results in this text go back to US6872729B2, “Pyrimidinylbenzimidazole and triazinylbenzimidazole derivatives and agricultural/horticultural fungicides” (Kumiai Chemical Industry Co., Ltd., priority 1998, dated 2005).

Structures are written as SMILES. A value given as a limit tells only on which side of the number the result lay.

One data set relates to Erysiphe graminis. The data set is described as follows: Test for preventive effect on wheat powdery mildew. The following applies: wheat (Norin-61-go) seedlings, 500 ppm active ingredient, preventive treatment; diseased area of first leaves 10 days after inoculation with Erysiphe graminis. It is filed as in vivo. The gist of the method:
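Wheat seedlings (Norin-61-go), grown 8 days, were sprayed with wettable-powder solutions at 500 ppm active ingredient, air-dried, then inoculated by sprinkling Erysiphe graminis spores. Plants were kept at 20-25° C. Diseased area on first leaves was scored 10 days post-inoculation against a rating standard.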

In general, melting point refers to the temperature, or range, at which the solid turns liquid. Molecule `COc1nc(OC)nc(-n2c(Cl)nc3cc(Cl)ccc32)n1` [Compound I-277, 2,5-dichloro-1-(4,6-dimethoxy-[1,3,5]triazin-2-yl)benzimidazole] showed a melting point of 146 to 149 °C. In the data set with Erysiphe graminis, the Biological effectiveness result is “B (Diseased area of less than 25%)”.

For `COc1cc(OC)nc(-n2c(N)nc3cc(C)ccc32)n1` [Compound I-362, 2-amino-1-(4,6-dimethoxypyrimidin-2-yl)-5-methylbenzimidazole], the melting point was above 300 °C. In the data set with Erysiphe graminis, the Biological effectiveness result is “A (No diseased area)”.

`COc1nc(OC)nc(-n2c(N)nc3cc(Cl)ccc32)n1` [Compound I-368, 2-amino-5-chloro-1-(4,6-dimethoxy-[1,3,5]triazin-2-yl)benzimidazole] had a melting point of 293 to 296 °C. Besides, the Biological effectiveness result in the data set on Erysiphe graminis is on record as “B (Diseased area of less than 25%)”.

In turn, `COc1cc(OC)nc(-n2c(Cl)nc3cc(C)ccc32)n1` [Compound I-258, 2-chloro-1-(4,6-dimethoxypyrimidin-2-yl)-5-methylbenzimidazole] displayed a melting point of 145 to 148 °C. Besides, the Biological effectiveness result in the data set on Erysiphe graminis was “A (No diseased area)”.

`COc1nc(OC)nc(-n2c(C)nc3cc(Cl)ccc32)n1` [Compound I-215, 5-chloro-1-(4,6-dimethoxy-[1,3,5]triazin-2-yl)-2-methylbenzimidazole] showed a melting point of 173 to 176 °C. Moreover, the Biological effectiveness result in the data set with Erysiphe graminis is “A (No diseased area)”.

As for `COc1cc(OC)nc(-n2c(C)nc3cc(C)ccc32)n1` [Compound I-186, 1-(4,6-dimethoxypyrimidin-2-yl)-2,5-dimethylbenzimidazole], the melting point fell in the range of 163 to 166 °C. Besides, the Biological effectiveness result in the data set on Erysiphe graminis is on record as “A (No diseased area)”.

Turning to `COc1cc(OC)nc(-n2c(C(F)(F)F)nc3cc(C)ccc32)n1` [Compound I-298, 1-(4,6-dimethoxypyrimidin-2-yl)-5-methyl-2-trifluoromethylbenzimidazole], the melting point fell in the range of 93 to 96 °C. Further, the Biological effectiveness entry in the data set with Erysiphe graminis is listed as “A (No diseased area)”.

`COc1ccnc(-n2cnc3ccccc32)n1` [Compound I-667, 1-(4-methoxypyrimidin-2-yl)-benzimidazole]: the melting point was in the range of 114 to 116 °C. Also, the Biological effectiveness entry with Erysiphe graminis is recorded as “B (Diseased area of less than 25%)”.

`CSc1nc(SC)nc(-n2c(C)nc3ccccc32)n1` [Compound I-1042, 1-(4,6-dimethylthio-[1,3,5]triazin-2-yl)-2-methylbenzimidazole] registered a melting point of 176 to 179 °C.

`COc1nc(OC)nc(-n2c(C(F)(F)F)nc3cc(C)ccc32)n1` [Compound I-312, 1-(4,6-dimethoxy-[1,3,5]triazin-2-yl)-5-methyl-2-trifluoromethylbenzimidazole]: the melting point fell in the range of 137 to 140 °C. Further, the Biological effectiveness result with Erysiphe graminis is “A (No diseased area)”.

In turn, `COc1cc(OC)nc(-n2c(S(C)(=O)=O)nc3ccccc32)n1` [Compound I-5, 1-(4,6-dimethoxypyrimidin-2-yl)-2-methylsulfonylbenzimidazole] yielded a melting point of 114 to 117 °C.
